The term pIC50 denotes the negative decadic logarithm of the IC50, by convention in mol/L. In general, inhibition refers to the drop in the measured response relative to a control, in per cent.

pIC50: −log10 of the molar value. Where two headings read alike, the source gives them in different places.

This is an account of results in patent US8148387B2, “AKT and P70 S6 kinase inhibitors” (Eli Lilly and Company, priority 2008, dated 2012).

The target of one experiment is T1, AKT1 (Homo sapiens, UniProt P31749).
T1 construct: His tag; host or cells: insect cells
T1 sequence (P31749 whole entry): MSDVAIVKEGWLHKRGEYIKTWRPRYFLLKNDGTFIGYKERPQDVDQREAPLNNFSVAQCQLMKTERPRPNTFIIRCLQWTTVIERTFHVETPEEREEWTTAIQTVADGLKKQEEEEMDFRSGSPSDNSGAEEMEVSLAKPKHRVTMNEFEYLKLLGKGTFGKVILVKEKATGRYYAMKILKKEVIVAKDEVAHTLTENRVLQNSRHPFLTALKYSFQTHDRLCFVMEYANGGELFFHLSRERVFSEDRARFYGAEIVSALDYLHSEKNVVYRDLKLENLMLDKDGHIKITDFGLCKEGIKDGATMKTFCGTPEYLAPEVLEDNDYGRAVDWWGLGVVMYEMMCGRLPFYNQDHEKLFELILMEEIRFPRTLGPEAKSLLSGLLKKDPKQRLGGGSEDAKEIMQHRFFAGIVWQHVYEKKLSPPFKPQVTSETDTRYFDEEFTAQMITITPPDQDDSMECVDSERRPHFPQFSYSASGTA
Nature of the experiment: AKT1 In Vitro Enzyme Assay (Transcreener Kinase ADP-FP). The class given is biochemical. The settings on record: 20 micromolar ATP; read-out: IC50 against AKT1. The procedure: Compound IC50 values against AKT1 target are determined using the AKT1 Transcreener™ Kinase ADP-FP Assay. This assay assesses the activity of AKT1 in the presence of compound inhibitors by measuring the concentration of ADP formed in a kinase reaction. The kinase reactions (25 μL reaction volumes) are performed in 96-well half-area black polystyrene plates. ATP is added to start the reactions. Final reaction conditions are 56 millimolar HEPES pH 7.4, 0.008% TRITON™ X-100, 5 millimolar magnesium chloride, 30 micromolar Crosstide peptide, 20 micromolar ATP, hAKT1 Human Recombiant, V-AKT Murine Thymoma Viral Oncogene Homolog 1, histidine-tagged, expressed in insect cells, 4% DMSO and serial dilutions of compound (diluted 1:3 from 20,000 to 1 nanomolar). […] Quenched reactions are incubated for 4-16 hours, and then read in a Tecan Ultra Evolution plate reader in Fluorescence Polarization mode using polarizing filters of Ex612nm and Em633nm wavelength. […] The IC50 value for each compound is derived using percent inhibition data which is calculated using the micromolar ADP reaction data relative to on-plate controls (active enzyme versus 100 millimolar inhibited enzyme controls). […]

For experiment [1], the system named is phosphorylated S6 ribosomal protein serine 240/244 (pS6). Nature of the experiment: AlphaScreen SureFire detection of pS6 in U87MG cells. Conditions: Homo sapiens, U-87 MG, 1 hour. The class given is cell-based. The procedure:
The effect of compounds on the formation of endogenous phosphorylated S6 ribosomal protein serine 240/244 (pS6) and phosphorylated GSK3β serine 9 (pGSK3β) are measured using the AlphaScreen SureFire® for either pS6 (TGR Biosciences, TGRS6P2S10K) or pGSK3β(TGRGBS10K). This is a homogeneous assay format using immuno-sandwich capture of the phosphorylated analyte followed by detection using antibody-coated Alphascreen beads to generate an amplified signal.
U87MG cells are maintained in U87MG growth medium consisting of DMEM supplemented with 10% Fetal bovine serum (FBS), 1% Nonessential amino acids and 1% sodium pyruvate. For the assay, cells are harvested by standard procedures and then counted using Vi-Cell. Cells (50,000/well) are plated in 100 μL of U87MG growth medium into Costar #3596 96 well plates. […]
On the day of the assay, cells are treated with 20 μL/well compound diluted in media containing 6% DMSO. […] The plate is sealed with foil, incubated at RT for 4 hours with gentle shaking and then read on Perkin Elmer EnVision equipped with a TurboModule using standard AlphaScreen® settings (Ex680nm and Em520-620nm). The percent inhibition determined from controls on each plate and ten-point compound concentration data are then fit to a four-parameter logistic equation using ACTIVITYBASE 4.0 (Assay Guidance Manual Version 5.0, 2008, Eli Lilly and Company and NIH Chemical Genomics Center).
A general note: In Alpha technology, singlet oxygen from a donor bead excites a nearby acceptor bead.

Experiment [2] has as its system phosphorylation of the serine 240/244 site of S6RP. The experiment in a line: p70 S6K/AKT In Vivo Target Inhibition, U87MG xenograft, pS6. Conditions: Mus musculus, U-87 MG, IV Dose 12.5 mpk, U87MG tumors, read-out: p(S240) S6 - % inhibition. Details: species or system athymic nude mice. The procedure: U87MG human glioblastoma cells (5×106) are subcutaneously implanted into the flank of athymic nude mice in 0.2 mL of matrigel. Two weeks post-implantation, mice are dosed orally or parenterally according to a time course, single dose/single time point, or dose response protocol for the determination of TMED50 (threshold minimum effective dose). Tumors are flash frozen at harvest and blood is collected for the determination of parent compound plasma exposure and the calculation of TMEC50 (threshold minimum effective concentration) in the case of dose response studies. Tumors or tissues are pulverized in liquid N2 and lysed in 400 μL of XY Lysis Buffer (10 μg/mL Leupeptin, 10 μg/mL Trypsin-Chymotrypsin Inhibitor, 10 μg/mL Tosyl phenyl-alanyl chloromethyl ketone, 10 μg/mL Aprotinin, 60 mM Beta-Glycerol Phosphate, 1% Triton X100, 25 mM Tris pH 7.5, 2.5 mM Pyrophosphate, 150 mM NaCl, 2 mM p-tosyl-L-arginine methyl ester, 15 mM para-nitrophenyl phosphate, 5 mM Benzamidine, 1 mM Na Vanadate, 10 mM NaF, 50 μg/mL phenyl-methane sulfonyl fluoride, 1 mM 1,4-Dithiothreitol (DTT), 15 mM EDTA pH 8.0, 5 mM EGTA pH 8.0, 1 μM Microcystin, 1 μM Okadaic Acid, and 1 Roche Complete protease inhibitor mini-tablet per 10 mL) using Lysing Matrix D tubes (MP Biomedicals, Solon, Ohio, cat#6913-500) and a BIO101 Thermo Savant Fast Prep FP12. Lysates are aliquoted and either assayed immediately or stored at −80° C. for later testing. In Vivo Target Inhibition of p70 S6K and AKT is measured utilizing Meso Scale Discovery (Gaithersburg, Md.) ELISA technology to assess effects on phosphorylation of the serine 240/244 site of the downstream effector S6RP. Phosphorylation of p70 S6K(T389), AKT(5473) and GSK3β(S9) is also assessed using this technology in a multiplex format. In summary, 20 μg of lysate is added to carbon electrode containing 96-well plates pre-spotted with the appropriate capture antibodies. The protein of interest is probed using a ruthenium labeled detection antibody. Upon the passage of current over the electrode in the presence of read buffer containing the co-reactant TPA, electro-chemiluminescence results in the generation of light which is quantified and recorded using the MSD Sector 6000 instrument. For each study, percent inhibitions are calculated relative to the vehicle control group and ANOVA analysis is performed using the JMP software package for the determination of statistical significance.

Consider `CN(C)CCn1cc(-c2ccc(F)c(C(F)(F)F)c2)nc1C1CCN(c2ncnc3c2C(C)(C)C(=O)N3)CC1` [Example 31], for which the results for the pIC50 (on AKT1; in experiment [1]) were 8.22 and 7.19, respectively. The inhibition at 12.5 mg/kg in experiment [2] (1 hr post IV dose) is 79.2%; in experiment [2] (2 hr post IV dose), 87.6%; in experiment [2] (4 hr post IV dose), 94.9%; in experiment [2] (6 hr post IV dose), 91.7%; in experiment [2] (8 hr post IV dose), 96.4%; in experiment [2] (24 hr post IV dose) it was 45%.
